In patent US8507489B2, “Bicyclic triazoles as protein kinase modulators” (SGX Pharmaceuticals, Inc., priority 2006, dated 2013) one finds inhibition and IC50 data, which are given here for two compounds.

By inhibition is commonly meant the drop in the measured response relative to a control, in per cent. Broadly, the IC50 is the concentration at which inhibition is half-maximal. Low readings indicate greater potency in that assay, high ones weaker potency in that assay.

Format in all cases: biochemical
Assay [1] has as its target GSK3B (GSK3 beta) (Homo sapiens, UniProt P49841). Briefly: SelectScreen Kinase Profiling GSK3B. From the text: (§1) SelectScreen™ is a trademark screening assay protocol for kinases developed by Invitrogen Corporation, Madison, Wis. Details on assay conditions can be found on the company's website.
The target in assay [2] is TYRO3 (RSE) (Homo sapiens, UniProt Q06418). As to the kind of experiment: SelectScreen Kinase Profiling TYRO3.
Text: as §1

Assay [3] concerns the target EPHA2 (Homo sapiens, UniProt P29317). Briefly: SelectScreen Kinase Profiling EPHA2.
Text: as §1

The target of assay [4] is PTK2B (FAK2) (Homo sapiens, UniProt Q14289). As to the kind of experiment: SelectScreen Kinase Profiling PTK2B.
Text: as §1

Assay [5] concerns the target MAP4K4 (HGK) (Homo sapiens, UniProt O95819). Briefly: SelectScreen Kinase Profiling MAP4K4.
Text: as §1

In assay [6] the target is ABL1 Y253F (Homo sapiens, UniProt P00519, Y253F). As to the kind of experiment: SelectScreen Kinase Profiling ABL1 Y253F.
Text: as §1

Assay [7] concerns the target AURKA (Aurora A) (Homo sapiens, UniProt O14965). Briefly: SelectScreen Kinase Profiling AURKA.
Text: as §1

The target in assay [8] is PLK1 (Homo sapiens, UniProt P53350). As to the kind of experiment: SelectScreen Kinase Profiling PLK1.
Text: as §1

In assay [9] the target is FLT3 D835Y (Homo sapiens, UniProt P36888, D835Y). As to the kind of experiment: SelectScreen Kinase Profiling FLT3 D835Y.
Text: as §1

Assay [10] concerns the target HCK (Homo sapiens, UniProt P08631). As to the kind of experiment: SelectScreen Kinase Profiling HCK.
Text: as §1

The target in assay [11] is ALK (Homo sapiens, UniProt Q9UM73). As to the kind of experiment: SelectScreen Kinase Profiling ALK.
Text: as §1

Assay [12] has as its target NTRK3 (TRKC) (Homo sapiens, UniProt Q16288). Briefly: SelectScreen Kinase Profiling NTRK3.
Text: as §1

Assay [13] deals with T1, JAK2 JH1 JH2 V617F (Homo sapiens, UniProt O60674, V617F).
T1 construct: JAK2 JH1 JH2 V617F
As to the kind of experiment: SelectScreen Kinase Profiling JAK2 JH1 JH2 V617F.
Text: as §1

For assay [14], the target named is FGFR3 (Homo sapiens, UniProt P22607). As to the kind of experiment: SelectScreen Kinase Profiling FGFR3.
Text: as §1

In assay [15] the target is KDR (VEGFR2) (Homo sapiens, UniProt P35968). As to the kind of experiment: SelectScreen Kinase Profiling KDR.
Text: as §1

Assay [16] deals with MET (cMet) (Homo sapiens, UniProt P08581). Briefly: SelectScreen Kinase Profiling MET.
Text: as §1

The target in assay [17] is MET M1250T (Homo sapiens, UniProt P08581, M1250T). As to the kind of experiment: SelectScreen Kinase Profiling MET M1250T.
Text: as §1

Assay [18] addresses c-MET (Homo sapiens, UniProt P08581). Briefly: MET luminescence-based enzyme assay (Kinase-Glo). The procedure:
The subscript designates positive or negative controls. The Z′ score for a robust screening assay should be ≧0.50. The typical threshold=μ+−3*σ+. Any value that falls below the threshold was designated a “hit”.
MET Luminescence-Based Enzyme Assay
MET kinase (see below), Kinase-Glo™ (Promega Cat#V6712).
Negative controls contained 10 μM staurosporine.
(In general: In Kinase-Glo more light means more ATP remaining.)

The target of assay [19] is FRAP1 (mTOR) (Homo sapiens, UniProt P42345). Briefly: SelectScreen Kinase Profiling FRAP1.
Text: as §1

Sequence of PLK1 (P53350 whole entry): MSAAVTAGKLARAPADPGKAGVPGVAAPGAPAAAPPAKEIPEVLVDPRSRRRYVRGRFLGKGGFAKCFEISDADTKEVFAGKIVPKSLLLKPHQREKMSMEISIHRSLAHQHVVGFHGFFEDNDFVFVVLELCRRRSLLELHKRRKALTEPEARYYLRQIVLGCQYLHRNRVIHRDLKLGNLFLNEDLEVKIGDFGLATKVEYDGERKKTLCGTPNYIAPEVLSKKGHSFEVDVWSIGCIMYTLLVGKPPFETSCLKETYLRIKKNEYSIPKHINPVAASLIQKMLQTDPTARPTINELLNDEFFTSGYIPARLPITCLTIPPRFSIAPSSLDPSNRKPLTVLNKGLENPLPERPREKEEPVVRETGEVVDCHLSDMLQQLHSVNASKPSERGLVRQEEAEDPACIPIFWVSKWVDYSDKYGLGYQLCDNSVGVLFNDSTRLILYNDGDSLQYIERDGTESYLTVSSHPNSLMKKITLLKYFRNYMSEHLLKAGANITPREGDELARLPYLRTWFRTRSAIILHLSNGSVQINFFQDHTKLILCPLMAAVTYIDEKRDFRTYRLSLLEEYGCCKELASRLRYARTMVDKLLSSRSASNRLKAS
Sequence of TYRO3 (RSE) (Q06418 41-890): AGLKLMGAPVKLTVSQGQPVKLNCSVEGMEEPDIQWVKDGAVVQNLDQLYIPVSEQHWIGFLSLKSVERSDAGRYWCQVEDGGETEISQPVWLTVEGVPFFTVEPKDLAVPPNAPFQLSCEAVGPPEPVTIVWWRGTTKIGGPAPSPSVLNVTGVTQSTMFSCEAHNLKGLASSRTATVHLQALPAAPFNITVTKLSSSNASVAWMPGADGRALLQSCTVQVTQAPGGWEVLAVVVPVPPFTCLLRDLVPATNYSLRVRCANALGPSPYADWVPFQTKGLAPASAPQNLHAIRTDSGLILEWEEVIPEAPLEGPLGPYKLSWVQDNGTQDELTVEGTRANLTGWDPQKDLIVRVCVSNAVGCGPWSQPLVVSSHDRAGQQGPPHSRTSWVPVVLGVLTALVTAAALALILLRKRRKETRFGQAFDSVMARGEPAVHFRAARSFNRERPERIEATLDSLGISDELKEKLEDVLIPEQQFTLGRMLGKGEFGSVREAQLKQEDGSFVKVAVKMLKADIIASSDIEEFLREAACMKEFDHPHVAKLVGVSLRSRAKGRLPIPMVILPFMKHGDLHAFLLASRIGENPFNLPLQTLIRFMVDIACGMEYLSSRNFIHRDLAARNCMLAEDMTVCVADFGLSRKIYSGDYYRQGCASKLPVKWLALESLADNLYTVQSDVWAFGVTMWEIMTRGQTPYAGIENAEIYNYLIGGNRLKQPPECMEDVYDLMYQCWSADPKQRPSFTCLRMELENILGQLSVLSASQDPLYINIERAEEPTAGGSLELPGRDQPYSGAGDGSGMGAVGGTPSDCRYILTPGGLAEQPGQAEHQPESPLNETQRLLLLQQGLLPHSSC
Sequence of HCK (P08631 whole entry): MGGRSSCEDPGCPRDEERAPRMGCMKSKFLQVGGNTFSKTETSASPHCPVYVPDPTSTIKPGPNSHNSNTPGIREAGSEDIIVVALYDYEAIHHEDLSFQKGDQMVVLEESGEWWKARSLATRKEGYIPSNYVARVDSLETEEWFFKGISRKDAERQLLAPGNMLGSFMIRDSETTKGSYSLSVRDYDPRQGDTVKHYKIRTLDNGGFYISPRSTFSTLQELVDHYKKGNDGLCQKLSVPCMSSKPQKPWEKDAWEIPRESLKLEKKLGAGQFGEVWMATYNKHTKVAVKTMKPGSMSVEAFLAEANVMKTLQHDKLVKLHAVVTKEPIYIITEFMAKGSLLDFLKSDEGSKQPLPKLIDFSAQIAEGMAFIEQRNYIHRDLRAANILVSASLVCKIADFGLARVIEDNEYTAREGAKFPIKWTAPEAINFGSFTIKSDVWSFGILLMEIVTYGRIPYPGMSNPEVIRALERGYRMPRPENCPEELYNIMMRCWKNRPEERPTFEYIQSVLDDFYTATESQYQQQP
Sequence of PTK2B (FAK2) (Q14289 whole entry): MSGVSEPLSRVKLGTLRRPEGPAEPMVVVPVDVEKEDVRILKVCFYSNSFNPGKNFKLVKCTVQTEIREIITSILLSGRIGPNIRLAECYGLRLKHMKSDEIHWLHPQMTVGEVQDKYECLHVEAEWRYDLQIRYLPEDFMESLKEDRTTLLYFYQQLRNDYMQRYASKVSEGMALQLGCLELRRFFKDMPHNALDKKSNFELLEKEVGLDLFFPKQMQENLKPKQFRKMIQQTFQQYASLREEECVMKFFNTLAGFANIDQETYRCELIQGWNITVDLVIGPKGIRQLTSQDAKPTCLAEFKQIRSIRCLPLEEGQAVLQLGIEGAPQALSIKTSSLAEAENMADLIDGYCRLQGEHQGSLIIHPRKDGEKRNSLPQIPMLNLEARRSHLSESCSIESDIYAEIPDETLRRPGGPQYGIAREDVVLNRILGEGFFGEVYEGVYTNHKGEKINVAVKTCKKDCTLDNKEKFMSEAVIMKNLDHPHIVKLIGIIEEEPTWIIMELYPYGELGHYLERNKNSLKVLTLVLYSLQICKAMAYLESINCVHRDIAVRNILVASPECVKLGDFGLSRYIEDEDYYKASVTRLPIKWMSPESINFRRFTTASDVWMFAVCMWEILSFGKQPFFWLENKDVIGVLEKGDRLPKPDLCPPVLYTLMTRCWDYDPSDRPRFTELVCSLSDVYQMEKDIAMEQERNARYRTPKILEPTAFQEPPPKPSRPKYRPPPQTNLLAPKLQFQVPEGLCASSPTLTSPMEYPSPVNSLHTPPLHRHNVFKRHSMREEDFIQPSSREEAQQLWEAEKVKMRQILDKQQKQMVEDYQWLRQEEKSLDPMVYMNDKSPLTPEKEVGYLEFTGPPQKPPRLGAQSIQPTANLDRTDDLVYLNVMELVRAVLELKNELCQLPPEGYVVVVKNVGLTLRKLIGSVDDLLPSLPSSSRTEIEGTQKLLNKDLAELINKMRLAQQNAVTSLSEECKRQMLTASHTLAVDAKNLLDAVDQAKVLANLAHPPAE
Sequence of GSK3B (GSK3 beta) (P49841 whole entry): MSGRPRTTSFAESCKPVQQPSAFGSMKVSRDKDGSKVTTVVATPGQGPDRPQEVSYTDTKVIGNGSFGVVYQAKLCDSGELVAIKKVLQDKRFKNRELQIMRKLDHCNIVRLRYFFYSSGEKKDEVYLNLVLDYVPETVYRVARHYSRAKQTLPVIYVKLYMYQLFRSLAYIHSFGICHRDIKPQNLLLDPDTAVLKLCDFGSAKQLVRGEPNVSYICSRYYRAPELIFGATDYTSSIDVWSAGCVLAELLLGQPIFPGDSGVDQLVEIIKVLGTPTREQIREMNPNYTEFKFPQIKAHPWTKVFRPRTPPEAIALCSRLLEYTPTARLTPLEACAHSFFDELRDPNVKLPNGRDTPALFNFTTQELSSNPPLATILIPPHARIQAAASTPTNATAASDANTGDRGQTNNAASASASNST
T1 sequence (O60674 532-1132 V617F limits assumed): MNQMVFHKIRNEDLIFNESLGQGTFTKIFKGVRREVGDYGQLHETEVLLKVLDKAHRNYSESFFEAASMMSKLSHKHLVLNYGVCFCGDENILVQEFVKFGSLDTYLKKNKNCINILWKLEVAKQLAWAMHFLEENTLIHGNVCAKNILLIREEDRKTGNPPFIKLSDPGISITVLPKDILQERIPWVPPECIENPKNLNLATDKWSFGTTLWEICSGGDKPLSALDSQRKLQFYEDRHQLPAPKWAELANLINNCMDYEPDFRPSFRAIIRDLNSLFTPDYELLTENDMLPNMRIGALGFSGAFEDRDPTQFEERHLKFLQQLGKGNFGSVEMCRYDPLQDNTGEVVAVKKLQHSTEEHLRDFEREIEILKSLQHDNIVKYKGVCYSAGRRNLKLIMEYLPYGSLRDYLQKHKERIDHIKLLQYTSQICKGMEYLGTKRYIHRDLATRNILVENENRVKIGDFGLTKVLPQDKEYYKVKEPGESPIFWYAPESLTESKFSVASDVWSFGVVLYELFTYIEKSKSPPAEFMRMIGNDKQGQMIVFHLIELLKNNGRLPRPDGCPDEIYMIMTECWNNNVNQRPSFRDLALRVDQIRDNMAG
Sequence of AURKA (Aurora A) (O14965 whole entry): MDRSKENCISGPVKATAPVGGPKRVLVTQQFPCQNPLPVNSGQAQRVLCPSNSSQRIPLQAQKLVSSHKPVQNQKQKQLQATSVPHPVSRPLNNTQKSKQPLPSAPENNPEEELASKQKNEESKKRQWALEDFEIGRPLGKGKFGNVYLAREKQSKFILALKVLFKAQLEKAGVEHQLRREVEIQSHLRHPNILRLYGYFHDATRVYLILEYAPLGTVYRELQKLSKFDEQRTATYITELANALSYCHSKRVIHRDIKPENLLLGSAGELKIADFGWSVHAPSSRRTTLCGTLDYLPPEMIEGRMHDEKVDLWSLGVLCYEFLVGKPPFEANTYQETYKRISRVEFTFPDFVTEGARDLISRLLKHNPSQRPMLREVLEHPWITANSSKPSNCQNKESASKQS
Sequence of c-MET (P08581 1078-1345 limits assumed): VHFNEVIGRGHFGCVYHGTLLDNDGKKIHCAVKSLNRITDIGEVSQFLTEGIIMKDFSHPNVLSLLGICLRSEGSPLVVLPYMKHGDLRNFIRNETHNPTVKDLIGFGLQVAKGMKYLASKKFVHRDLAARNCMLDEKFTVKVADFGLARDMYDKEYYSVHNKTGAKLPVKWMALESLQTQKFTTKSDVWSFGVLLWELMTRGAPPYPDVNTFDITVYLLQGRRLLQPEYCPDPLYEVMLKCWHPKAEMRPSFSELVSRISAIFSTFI

Regarding `Cn1cc(-c2ccc3nnc(Sc4ccc5ncccc5c4)n3n2)cn1` [Compound 4, 6-[6-(1-Methyl-1H-pyrazol-4-yl)-[1,2,4]triazolo[4,3-b]pyridazin-3-ylsulfanyl]-quinoline], the inhibition at 1 µM is 5% in assay [1]; 19% in [2]; -23% in [3]; 6% in assay [4]; -1% in [5]; 20% in assay [6]. Moreover, the inhibition at 1 µM was 18% in [7]; 0% in assay [8]; 8% in assay [9]; 8% in [10]; -10% in assay [11]; 7% in assay [12]. Also, the inhibition at 1 µM in assay [13] is -11%; in assay [14], -4%.

With `Cc1ccc2nnc(Sc3ccc4ncc(-c5cnn(C)c5)cc4c3)n2n1` [Compound 41, 3-(1-Methyl-1H-pyrazol-4-yl)-6-(6-methyl-[1,2,4]triazolo[4,3-b]pyridazin-3-ylsulfanyl)-quinoline], the inhibition at 1 µM was found to be 1% in assay [1]; 22% in assay [2]; 2% in assay [3]; 16% in assay [15]; 12% in assay [4]; 27% in [5]. For the same compound, the inhibition at 1 µM in assay [16] came to 98%; in assay [17], 89%; in assay [6], 30%; in assay [7] it was 49%; in assay [8], 0%; in [9] it was 35%. Further, the inhibition at 1 µM came to 9% in assay [10]; 0% in assay [19]; 23% in assay [11]; 85% in assay [12]; 9% in assay [13]; 26% in assay [14]. In assay [18], this compound gave an IC50 of under 0.1 µM.
